# Key:
# [1] = system: B16F10 tumors; test: Histology of B16F10 tumors (CD31, CD3, H&E); assay type: in vivo, mouse; settings: untreated vs sitagliptin-treated mice
# Procedure: B16F10 tumors were dissected and fixed in JB fixative (zinc acetate 0.5%, zinc chloride 0.05%, and calcium acetate 0.05% in Tris buffer, pH 7) for 48 hours, prior to being embedded in low-melting point paraffin (Poly Ethylene Glycol Distearate; Sigma, USA). 5 μm thick paraffin sections were deparafinized in absolute ethanol, air dried, and routinely stained with hematoxylin-eosin or used for immunolabelling. For immunohistochemistry, the following primary antibodies were used: anti-CD3 (rabbit α-human, clone A0452, DAKO, Carpinteria, CA) and anti-CD31 (rat a-mouse, clone 1/75e, BD Pharmingen, Franklin Lake, NJ, USA). CD31 immunolabelled sections were digitalized using a Zeiss Axio Scan Z.1 at ×20. For histomorphometry of blood vessels, CD31 positive profiles were manually delineated on digitalized images, using the “area” tool of the Zen software (Zeiss) at a magnification of 30%. The whole tumor surface was also delineated in the same way at a magnification of 2%. Mean number of blood vessels per mm2 and mean vessel area were then calculated for each group of mice.
# [2] = system: mCXCL10; test: Chemokine quantification in B16F10 tumor homogenates (ELISA/Luminex); assay type: in vivo, mouse
# Procedure: Soluble extracts were collected after centrifugation of tumor homogenates.
# For detection of mCXCL10(1-77), MAXISORP PLATES® (Nunc) were coated with 4 μg/ml of α-mCXCL10 capturing antibody (MAB466, R&D) in PBS and incubated over night at 4° C. Plates were washed twice with 300 μL of PBS. […] Tumor and plasma samples were diluted in BSA 1% and incubated for 2h, at room temperature.
# [3] = system: mCXCL10; settings: sitagliptin vs control
# Procedure: Plates were washed twice with 300 μL of PBS. Blocking was done with BSA 1% (proteinase free, Gibco), in PBS for 2h at room temperature. Plates were washed 3 times with 300 μL of 0.05% Tween-20 in PBS. Tumor and plasma samples were diluted in BSA 1% and incubated for 2h, at room temperature. To obtain a standard curve, and to control for the cross-reactivity of the detection antibody, dilutions of recombinant mCXCL10 (Peprotech) or DPP4-digested mCXCL10(3-77) were incubated in parallel. For detection of mCXCL10(1-77), biotinylated α-mCXCL10(1-77) (AbDSerotec, 0.5 μg/ml, clone AbD17185.1), Streptavidin-HRP (BD Biosciences) and 1-STEP ULTRA TMB (Thermo Scientific) were used.
# Enzymatic reactions were stopped with HCL 1N and plates were read with 450 nm in a Lab-systems […] MS (Thermo) reader. […] Detection of mDPP4, mCCL22 and mCXCL12 was done with the DUOSET® ELISA kit (R&D). Detection of mVEGF, mCCL2 and mCCL3 was done with a multiplex kit (Invitrogen).
# [4] = system: CT26 tumors; test: Flow cytometry of leukocytes infiltrating CT26 tumors; assay type: in vivo, mouse; settings: day 11, sitagliptin vs control
# [5] = system: CXCR3-expressing T cells; test: Model of trafficking into the peritoneal cavity; assay type: in vivo, mouse
# Procedure: WT and Dpp4^−/− mice were intraperitoneally injected with PBS or 1 μg of mCXCL10, mCXCL9 or mCCL5 (all from Peprotech). At the indicated time points, mice were sacrificed and peritoneal cells were collected in 10 mL of PBS. For thioglycollate induced peritonitis mice were intraperitoneally injected with thioglycollate 3% weight/volume, 24 hours before collection of peritoneal cells.
# Fluorochrome-conjugated anti-mouse CD3 (clone145-2C11), CD8 (clone 53-6.7), CD4 (clone RM4-5), NK1.1 (clone PK136), CD49b (clone DX5), CD25 (clone PC61), B220 (clone RA3-6B2), Ly6G (clone 1A8), Ly6C (clone AL-21), CD11 b (clone M1/70) Siglec-F (clone E50-2440), MHCII IA-IE (clone M5/114.15.2), CD45.2 (clones 56-0454-82 and 109830), Thy-1.1 (clone HIS51), Thy-1.2 (clone 53-2.1), DPP4 (clone H194-112) and CXCR3 (clone CXCR3-173) were from eBiosciences and BD Biosciences. Fluorochrome conjugated anti-F4/80 (clone CI:A3-1) was from AbDserotec. For exclusion of dead cells, Live/Dead fixable Aqua reagent (Invitrogen) was used. For all staining protocols, cell suspensions were incubated with mouse CD16/CD32 Fc Blocking antibodies (BD Biosciences) prior to antibody. For analysis of peritoneal cavity infiltrates, cells were washed and incubated with a cocktail of fluorochrome-conjugated antibodies. For analysis of tumor infiltrates, B16F10 tumors were collected at the indicated time points and digested in PBS supplemented with 2.7 mg/ml of Collagenase (Roche) and 23U/ml of Deoxyribonuclease I (Invitrogen) for 30 min, 37° C. Digestion was terminated by adding PBS supplemented with 2% FCS and 5 mM EDTA (Gibco). Tumor cell suspensions were obtained after filtration over a 70 μm cell strainer. For determination of cell numbers, the […] COUNTING BEADS reagent (Invitrogen) was used. Flow cytometry was performed using a BD LSRFORTESSA or a BD CANTO cytometer, with DIVA software. Computer analysis was done with FLOWJO (Treestar).
# [6] = system: MEK1 induced skin tumors; settings: Arwert and colleagues; cited from earlier work
# [7] = target: DPP8 (Homo sapiens, UniProt Q6V1X1); settings: Verspohl 2012; Huan et al. 2015; cited from earlier work
# [8] = target: DPP9 (Homo sapiens, UniProt Q86TI2); settings: Verspohl 2012; Huan et al. 2015; cited from earlier work
# Sequence of DPP9 (Q86TI2 whole entry, species assumed): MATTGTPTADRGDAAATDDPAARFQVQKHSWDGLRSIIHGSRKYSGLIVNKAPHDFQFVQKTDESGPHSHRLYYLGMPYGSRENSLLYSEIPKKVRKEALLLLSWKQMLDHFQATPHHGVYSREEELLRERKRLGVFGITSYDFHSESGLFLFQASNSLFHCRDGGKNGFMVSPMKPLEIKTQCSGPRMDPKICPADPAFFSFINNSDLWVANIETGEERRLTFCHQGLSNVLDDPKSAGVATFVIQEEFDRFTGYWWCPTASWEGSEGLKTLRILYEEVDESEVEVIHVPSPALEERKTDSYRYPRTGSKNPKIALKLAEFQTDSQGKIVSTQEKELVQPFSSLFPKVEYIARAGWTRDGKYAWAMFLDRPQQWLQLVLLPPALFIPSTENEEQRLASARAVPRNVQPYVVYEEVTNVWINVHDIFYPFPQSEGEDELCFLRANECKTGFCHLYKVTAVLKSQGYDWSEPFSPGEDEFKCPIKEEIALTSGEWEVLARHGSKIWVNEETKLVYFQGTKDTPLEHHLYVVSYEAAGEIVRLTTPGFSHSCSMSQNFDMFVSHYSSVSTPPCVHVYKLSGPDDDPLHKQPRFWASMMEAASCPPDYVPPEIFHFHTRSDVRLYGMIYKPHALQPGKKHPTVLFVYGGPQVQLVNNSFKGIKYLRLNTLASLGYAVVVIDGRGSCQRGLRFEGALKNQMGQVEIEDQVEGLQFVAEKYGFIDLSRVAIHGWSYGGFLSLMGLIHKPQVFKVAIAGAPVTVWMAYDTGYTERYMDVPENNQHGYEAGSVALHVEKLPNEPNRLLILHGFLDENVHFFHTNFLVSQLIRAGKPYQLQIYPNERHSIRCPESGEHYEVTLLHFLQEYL
# Sequence of DPP8 (Q6V1X1 whole entry, species assumed): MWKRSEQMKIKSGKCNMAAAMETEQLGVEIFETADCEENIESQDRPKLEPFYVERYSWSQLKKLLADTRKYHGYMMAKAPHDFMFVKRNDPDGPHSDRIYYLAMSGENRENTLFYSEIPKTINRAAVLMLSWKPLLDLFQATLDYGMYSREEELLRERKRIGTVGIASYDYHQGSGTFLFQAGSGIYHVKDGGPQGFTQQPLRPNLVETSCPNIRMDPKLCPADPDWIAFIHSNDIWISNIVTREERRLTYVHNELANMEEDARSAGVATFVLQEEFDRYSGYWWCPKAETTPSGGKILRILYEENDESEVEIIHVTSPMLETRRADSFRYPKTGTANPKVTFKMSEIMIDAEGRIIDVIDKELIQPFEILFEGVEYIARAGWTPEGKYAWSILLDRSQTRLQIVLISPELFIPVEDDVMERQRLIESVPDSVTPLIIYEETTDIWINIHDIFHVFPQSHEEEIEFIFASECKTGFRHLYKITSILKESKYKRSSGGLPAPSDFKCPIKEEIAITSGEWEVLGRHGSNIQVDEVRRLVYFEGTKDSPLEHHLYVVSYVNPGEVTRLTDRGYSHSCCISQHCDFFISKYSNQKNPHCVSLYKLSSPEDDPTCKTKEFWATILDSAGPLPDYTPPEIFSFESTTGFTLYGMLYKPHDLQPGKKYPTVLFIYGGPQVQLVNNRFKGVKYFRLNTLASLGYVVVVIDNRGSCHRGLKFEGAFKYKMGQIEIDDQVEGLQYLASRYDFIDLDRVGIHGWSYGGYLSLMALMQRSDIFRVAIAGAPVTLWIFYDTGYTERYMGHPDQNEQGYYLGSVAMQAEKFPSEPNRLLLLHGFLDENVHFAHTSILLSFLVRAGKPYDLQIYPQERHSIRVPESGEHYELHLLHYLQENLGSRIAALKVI
smiles,measurement,setting,value
N[C@@H](CC(=O)N1CCn2c(nnc2C(F)(F)F)C1)Cc1cc(F)c(F)cc1F [sitagliptin],number and diameter of tumor blood vessels (CD31 staining),[1],"no difference in the number, nor the diameter of blood vessels"
same,tumor associated mCXCL10 concentration,"[2]; B16F10 tumors, sitagliptin-treated vs control mice",elevated concentrations
same,full-length mCXCL10(1-77) among total mCXCL10 in tumor,"[2]; after intra-tumoral CpG-A, sitagliptin vs control",protected the full-length form of the molecule
same,intra-tumoral expression of mCCL2 and mCCL22 after CpG-A,[2]; control vs sitagliptin treated animals,no significant differences
same,quantity of plasma mCCL2,[3]; CpG-A intravenously,higher
same,CpG-A-induced plasma total CXCL10,"[3]; WT mice, 5 μg CpG-A intravenously",stabilization of CpG-A-induced plasma CXCL10
same,quantity of plasma mCXCL10(1-77),"[3]; WT mice, CpG-A intravenously",significantly higher
same,"infiltration of lymphocytes, including T cell subsets and NK cells, into CT26 tumors",[4],enhanced infiltration of lymphocytes
same,"number of tumor associated B cells, eosinophils and CD25hi regulatory T cells in CT26 tumors",[4],did not change
same,recruitment of polymorphonuclear cells into the peritoneal cavity,"[5]; after intraperitoneal mCXCL10, control or sitagliptin-fed mice",did not show differential recruitment
same,CXCR3 expression on peripheral blood T cells,"[5]; after intraperitoneal mCXCL10, sitagliptin vs control",unaltered CXCR3 expression
same,mCXCL10-mediated infiltration of T cells into the peritoneal cavity,"[5]; intraperitoneal mCXCL10, sitagliptin vs control chow",enhanced mCXCL10-mediated infiltration of T cells
same,CXCR3 plasma membrane expression on migrating T cells,"[5]; peritoneal cavity after mCXCL10 injection, sitagliptin vs control",lower
same,malignant transformation,[6],delays malignant transformation
same,effect on DPP8 activity,[7],no effect
same,effect on DPP9 activity,[8],no effect
